For data set [1], the target named is KRAS. As to conditions: ASO.
Data set [2] concerns the target HBV. As to conditions: ASO.

Where “and” joins values, the source holds several entries; their conditions need not be identical. Identical values can stand only once. After the bases stand the sugars from the 5' end (letter, count) and the backbone: PS all phosphorothioate, else s phosphorothioate and o phosphodiester by linkage. HELM strings list units from the 5' end as sugar, base in round brackets, then linkage (d deoxyribose, r ribose, m 2'-O-methyl, p phosphodiester). Methylation of C is not given here. [moe] = 2'-O-(2-methoxyethyl) (MOE); [cEt] = constrained ethyl (cEt); [sp] = phosphorothioate linkage; e = 2'-O-(2-methoxyethyl) (MOE); k = constrained ethyl (cEt); d = 2'-deoxy (DNA)

Regarding “ATGCTGTGAAACTCTC (sugars kddddddddddkekek, PS)”, the target mRNA inhibition in data set [1] (A431, 2 µM) was 18%.

In the case of “ATGCTGTGAAACTCTC (sugars kkddddddddddkeke, PS)”, the target mRNA inhibition in data set [1] (A431, 2 µM) amounted to 35%.

Regarding “GATTGTGCTGAGCTTG (sugars kkddddddddkekekk, PS)”, in data set [1] (A431, 2 µM), the target mRNA inhibition was determined as 14%.

As to CAAGATGACACTAATA (sugars k3 d10 k3, PS), the target mRNA inhibition in data set [1] (A431, 2 µM) came out at 18%.

In data set [1] (A431, 2 µM), “TAGTGATTAGGTCAAA (sugars kkdddddddddkdkdk, PS)” gave a target mRNA inhibition of 25%.

In turn, “GTGTTTATGCAATGTT (sugars kddddddddddkekek, PS)” returned a target mRNA inhibition in data set [1] (A431, 2 µM) of 53%.

The substance “AGGAGTCTTTATAGTA (sugars kkddddddddkekekk, PS)” came in with a target mRNA inhibition in data set [1] (A431, 2 µM) of 21%.

In turn, TAATCCATTTATGTGA (sugars k3 d10 k3, PS) had a target mRNA inhibition in data set [1] (A431, 2 µM) of 31%.

The substance TTAAAAAAAAAATTAA (sugars k3 d10 k3, PS) displayed a target mRNA inhibition in data set [1] (A431, 2 µM) of 0%.

The substance “CCATTTATGTGACTAG (sugars kkddddddddkekekk, PS)” gave a target mRNA inhibition in data set [1] (A431, 2 µM) of 0%.

“TCCATTTATGTGACTA (sugars kkkddddddddkekek, PS)” registered a target mRNA inhibition in data set [1] (A431, 2 µM) of 0%.

On to “ATGCTGTGAAACTCTC (sugars kkkdddddddddkeke, PS)”, for which the target mRNA inhibition in data set [1] (A431, 2 µM) worked out at 2%.

Take TCTTTTAATGTCACAA (sugars k3 d10 k3, PS): in data set [1] (A431, 2 µM), the target mRNA inhibition was determined as 46%.

Take TGTTTATGCAATGTTA (sugars k3 d10 k3, PS): the target mRNA inhibition in data set [1] (A431, 0.125 µM) was 49% and 53%; in data set [1] (A431, 0.185 µM), 21% and 0%; in data set [1] (A431, 0.556 µM) it was 40% and 27%; in data set [1] (A431, 1.667 µM), 53%; in data set [1] (A431, 5 µM), 79% and 68%; in data set [1] (NCI-H460, 0.037 µM), 41%.

As to “AGTGATTAGGTCAAAT (sugars kkddddddddkekekk, PS)”, the target mRNA inhibition in data set [1] (A431, 2 µM) is 46%.

Regarding TTGTATCTTGTTGAGC (sugars k3 d10 k3, PS), the target mRNA inhibition in data set [1] (A431, 2 µM) came to 50%.

Consider AATAGTTTCCATTGCC (sugars k3 d10 k3, PS), for which, in data set [1] (A431, 2 µM), the target mRNA inhibition worked out at 56%.

In turn, TCAAAGTTCACATAAA (sugars k3 d10 k3, PS) returned a target mRNA inhibition in data set [1] (A431, 2 µM) of 19%.

AAAAGCTATTAGGAGT (sugars k3 d10 k3, PS) had a target mRNA inhibition in data set [1] (A431, 2 µM) of 25%.

Substance TGTTTAAAAAAAAAAT (sugars k3 d10 k3, PS) showed a target mRNA inhibition in data set [1] (A431, 2 µM) of 2%.

As to GCTCTTGATTTGTCAG (sugars k3 d10 k3, PS), in data set [1] (A431, 2 µM), the target mRNA inhibition was 23%.

“GTCCAGTGATACTTTC (sugars kddddddddddkekek, PS)”: in data set [1] (A431, 2 µM), the target mRNA inhibition was determined as 36%.

The substance AAATTAGTGATTAGGT (sugars k3 d10 k3, PS) yielded a target mRNA inhibition in data set [1] (A431, 2 µM) of 5%.

In turn, ATTACTTTTTGACAAA (sugars k3 d10 k3, PS) returned a target mRNA inhibition in data set [1] (A431, 2 µM) of 0%.

For CTATTAGGAGTCTTTA (sugars k3 d10 k3, PS), the target mRNA inhibition in data set [1] (A431, 2 µM) came out at 34%.

In data set [1] (A431, 2 µM), CATTTCTGATGTGACT (sugars k3 d10 k3, PS) had a target mRNA inhibition of 32%.

“AGTGTGACTCAGTTAA (sugars kkdddddddddkdkdk, PS)” yielded a target mRNA inhibition in data set [1] (A431, 2 µM) of 38%.

In data set [1] (A431, 2 µM), CTTGAAAAGTGTTTAT (sugars k3 d10 k3, PS) gave a target mRNA inhibition of 0%.

Regarding AACCATTCAAAGTTCA (sugars k3 d10 k3, PS), the target mRNA inhibition in data set [1] (A431, 2 µM) is 35%.

For “RNA1{[moe](A)[sp].[cEt](G)[sp].d(C)[sp].d(G)[sp].d(A)[sp].d(A)[sp].d(G)[sp].d(T)[sp].d(G)[sp].d(C)[sp].d(A)[sp].d(C)[sp].[cEt](A)[sp].[moe](C)[sp].[cEt](G)[sp].[moe](G)}$$$$V2.0”, the target mRNA inhibition in data set [2] (HepG2, 0.0092593 µM) is 24%; in data set [2] (HepG2, 0.0277778 µM), 62%; in data set [2] (HepG2, 0.07 µM) it was 86% and 88%; in data set [2] (HepG2, 0.0833333 µM), 84%; in data set [2] (HepG2, 0.25 µM), 91%.

As to “RNA1{[moe](G)[sp].[cEt](A)[sp].[cEt](G)[sp].d(T)[sp].d(T)[sp].d(C)[sp].d(C)[sp].d(G)[sp].d(C)[sp].d(A)[sp].d(G)[sp].d(T)[sp].d(A)[sp].[cEt](T)[sp].[cEt](G)[sp].[moe](G)}$$$$V2.0”, in data set [2] (HepG2, 0.07 µM), the target mRNA inhibition was 83% and 76%.

Regarding “RNA1{[moe](C)[sp].[moe](T)[sp].[moe](G)[sp].[moe](G)[sp].[moe](A)[sp].[moe](G)[sp].d(C)[sp].d(C)[sp].d(A)[sp].d(C)[sp].d(C)[sp].d(A)[sp].d(G)[sp].d(C)[sp].d(A)[sp].[moe](G)[sp].[moe](G)}$$$$V2.0”, the target mRNA inhibition in data set [2] (HepG2, 0.07 µM) is 54% and 50%.

Regarding “RNA1{[moe](A)[sp].[cEt](G)[sp].[cEt](A)[sp].d(A)[sp].d(G)[sp].d(A)[sp].d(T)[sp].d(G)[sp].d(A)[sp].d(G)[sp].d(G)[sp].d(C)[sp].d(A)[sp].[cEt](T)[sp].[cEt](A)[sp].[moe](G)}$$$$V2.0”, the target mRNA inhibition in data set [2] (HepG2, 0.07 µM) was 64% and 63%.

For the substance “RNA1{[moe](A)[sp].[moe](A)[sp].[moe](T)[sp].[moe](T)[sp].d(T)[sp].d(A)[sp].d(T)[sp].d(G)[sp].d(C)[sp].d(C)[sp].d(T)[sp].d(A)[sp].d(C)[sp].[moe](A)[sp].[moe](G)[sp].[moe](C)[sp].[moe](C)}$$$$V2.0”, in data set [2] (HepG2, 0.07 µM), the target mRNA inhibition was 40% and 36%.

In the case of “RNA1{[moe](G)[sp].[cEt](G)[sp].[cEt](A)[sp].d(G)[sp].d(T)[sp].d(T)[sp].d(C)[sp].d(C)[sp].d(G)[sp].d(C)[sp].d(A)[sp].d(G)[sp].d(T)[sp].[cEt](A)[sp].[cEt](T)[sp].[moe](G)}$$$$V2.0”, the target mRNA inhibition was 13% in data set [2] (HepG2, 0.0092593 µM); 42% in data set [2] (HepG2, 0.0277778 µM); 90% and 76% in data set [2] (HepG2, 0.07 µM); 74% in data set [2] (HepG2, 0.0833333 µM); 89% in data set [2] (HepG2, 0.25 µM).

Take “RNA1{[moe](A)[sp].[cEt](T)[sp].[cEt](T)[sp].d(T)[sp].d(A)[sp].d(T)[sp].d(G)[sp].d(C)[sp].d(C)[sp].d(T)[sp].d(A)[sp].d(C)[sp].d(A)[sp].[cEt](G)[sp].[cEt](C)[sp].[moe](C)}$$$$V2.0”: the target mRNA inhibition in data set [2] (HepG2, 0.07 µM) is 57% and 46%.

These data come from the OligoGym collection.
